Data as given in patent US9028842B2, “Compositions and methods for treatment, research and therapeutic applications for malaria” (priority 2007, dated 2015).
Where no end group is shown, it is not given here.

Experiments:
[1] = test system: P. falciparum 3D7 ring stage parasites; assay: Transcriptional response to PPMP treatment by microarrays; assay type: cell-based, Plasmodium falciparum; details: 5 μM dl-threo-PPMP, 24 hr, relative to control trophozoites
Experimental: Ring stage parasites were treated with either 5 μM dl-threo-PPMP or vehicle ([ethanol]f=0.01%) for 24 hr and were harvested for RNA isolation. Untreated ring stage parasites were also harvested. The experimental design served to compare PPMP— to either mock-treated or ring stage transcripts. RNA was isolated according to Invitrogen (Carlsbad, Calif.) protocols using Trizol. First strand cDNA synthesis and hybridizations were performed according to previous protocols^24. Microarray slides were scanned using GenePix 4000B Scanner and analyzed with GenePix Pro 4.1. The statistical program R with the add-in package SMA (http://www. followed by stat.berkeley.edu/%7Eterry/zarray/Software/smacode.html) was used to normalize data^25,26. Only high quality features and those with signal two standard deviations above background were analyzed, leaving 4580 elements from a total of 8088 oligos. Features with a log odds ratio above zero were considered.

[2] = test system: P. falciparum ring stage parasites; assay: Quantitative RT-PCR of PFD0495c transcript after PPMP treatment; assay type: cell-based, Plasmodium falciparum; details: 5 μM PPMP, 12 and 24 hr of treatment
Experimental: Quantitative PCR was used to confirm the array results. Parasites were synchronized by successive rounds of percoll and sorbitol. Ring stage parasites were treated with either 5 μM dl-threo-PPMP or vehicle (ethanol=0.01%) for 3, 6, 12, and 24 h. RNA was isolated using Trizol (Invitrogen) and treated with DNAse (Promega) according the manufacturer's recommendations. Integrity of the RNA was confirmed with the 2100 Bioanalyzer (Agilent). First strand cDNA synthesis was initiated by priming 5 ug RNA with 40 ug/mL oligo(dT)12-18 at 65° C. for 5 min then incubating reaction with 0.5 mM dNTPs and 200 U SuperScript reverse transcriptase (Invitrogen) for 60 min at 42° C. The reaction was inactivated by heating to 70° C. for 15 min. […]
Amplification of P. falciparum 18S ribosomal RNA (GI 160642), an endogenous control, was done in parallel (forward 5′-ACAATTGGAGGGCAAGT-′3 (SEQ ID NO:39), reverse 5′-TTGGAGCTGGAATTACC-3′ (SEQ ID NO:40)) to standardize the amount of sample in each well. […] Relative quantification was performed using the comparative method, whereby the amount of PFD0495c was normalized to the endogenous control 18S rRNA. […]

[3] = test system: P. falciparum infected erythrocytes expressing PfHRPII-GFP; assay: Endocytic lipid import with the lipid marker FM4-64; assay type: cell-based, Plasmodium falciparum; details: 5 μM PPMP, short-term (30 min)
Experimental: FM4-64 (N-(3-triethylammoniumpropyl)-4-(6-(4-(diethylamino)phenyl)hexatrienyl)pyridinium dibromide) is a fluorescent lipid marker that has been used to study endocytosis in eukaryotic cells^18. To visualize active uptake of FM4-64 from the erythrocyte plasma membrane during intraerythrocytic growth, trophozoite stage parasites expressing either PfHRPII-GFP or PFD0495c-GFP were incubated in the absence or presence of 5 μM dl-threo-PPMP for 30 min at 37° C. Infected erythrocytes were washed three times in PBS then stained with 16 μM FM4-64 for 30 min at 37° C. Nuclei were stained with 10 μg/mL Hoechst 33342, and cells were washed with PBS three times. Cells were imaged live with DeltaVision Deconvolution microscopy^10.

[4] = test system: P. falciparum 3D7 and PFD0495c-GFP clones; assay: Reversibility of treatment with PPMP after 24 hr; assay type: cell-based, Plasmodium falciparum
Experimental: Synchronized ring stage parasites at 5-10% pst were incubated with 5 uM PPMP for 24 hr (day 1). Infected erythrocytes were washed with RPMI 1640 three times to remove PPMP then put back into culture. Blood smears were made at days 0, 1, 2, and 3 and stained with Giemsa. Parasites were fed fresh media every 24 hr. Rings, trophozoites and schizonts were enumerated by a counter who was blinded to sample identity. Both PFD0495c-GFP clones responded to PPMP in the same manner as 3D7. […] When PPMP was washed out, all parasites continued the cell cycle and at day 2 matured to schizonts, which formed new rings by day 3.

[5] = test system: P. falciparum 3D7 and PFD0495c-GFP clones; details: after 36 h of treatment, previous studies; cited from earlier work
[6] = test system: P. falciparum; assay: GST-fusions loaded into resealed erythrocyte ghosts, then infection by Plasmodium falciparum; assay type: cell-based
Text: Erythrocytes were loaded with GST cargo and resealed according to previous protocols^15. Schizonts were percoll-purified to >95% purity and mixed with loaded ghosts at 2% parasitemia. Numbers of rings, trophozoites and schizonts were enumerated by a counter who was blinded to sample identity. Parasite morphology was monitored for any differences. Images of blood smears were taken by light microscopy with a Zeiss Axioskop upright microscope and Nuance spectral camera/un-mixing system (Cambridge Research and Instrumentation).

[7] = test system: TVN of P. falciparum infected ghosts; assay: Visualization of tubovesicular network by BODIPY-Texas Red C5 ceramide staining; assay type: cell-based, Plasmodium falciparum; details: 10 μM in erythrocyte cytoplasm
Experimental: To visualize TVN membranes, erythrocytes or ghosts infected with indicated P. falciparum strain were washed free of serum and stained with 2.5 μM BODIPY-Texas Red C5 ceramide (N-((4-(4,4-difluoro-5-(2-thienyl)-4-bora-3a,4a-diaza-s-indacene-3-yl)phenoxy)acetyl)sphingosine, Invitrogen) for 15 min at 37° C. Nuclei were stained with 10 μg/mL Hoechst 33342. The cells were washed in RPMI 1640 three times and viewed live by DeltaVision Deconvolution microscopy as described^9.

[8] = test system: P. falciparum 3D7 infected ghosts; assay: Indirect immunofluorescence assay of parasite protein export in infected ghosts; assay type: cell-based, Plasmodium falciparum; details: 10 μM in erythrocyte cytoplasm
Experimental: Indirect immunofluorescence assay was conducted as described^27. Ghosts that were infected with 3D7 were probed with antibodies to HRPII (Santa Cruz) and MSP1 (MR4) and appropriate secondary antibodies conjugated to FITC or rhodamine. Nuclei were stained with 10 μg/mL Hoechst 33342. Images were captured using DeltaVision Deconvolution microscopy as described^10.

[9] = 50 μM in resealed erythrocyte ghosts

Compound | PFC0435w transcriptional change (down regulated) [1] | PFD0495c transcriptional change (upregulated) [1] | PFD0495c transcript level compared to vehicle control [2] | internalization of FM4-64 via TVN tubules [3] | reversibility of effects on parasite growth upon washing out drug ([4]; 5 μM PPMP 24 h, parent line and transgenic clones) | parasite stage after 24 incubation ([4]; 5 uM PPMP, 3D7 and both PFD0495c-GFP clones) | concentrations inhibiting 50% and 90% parasite growth [5] | effect on invasion (measured as ring formation) [6, 9] | effect on trophozoite growth [6, 9] | parasitemia on Day 3 ([6]; ghosts loaded with 10 μM) | effect on tubular-TVN development [7] | effect on parasite protein export [8]
CCCCCCCCCCCCCCCC(=O)N[C@H](CN1CCOCC1)[C@H](O)c1ccccc1 (racemic) [PPMP, dl-threo-1-phenyl-2-palmitoyl-3-morpholino-1-propanol] | ~4 fold | ~3 fold | significantly up-regulated | blocked | completely reversible | remained at the trophozoite stage | low micromolar | – | – | – | – | –
GST-PFD0495cCterm: recombinant form of the C-terminal region of PFD0495c (amino acids 795 to 833) fused to glutathione S-transferase (DLDIDDTLKFQHDQEFLNYFKRYQDFNNQLFDSFRSDDR; also: fused to glutathione S-transferase) | – | – | – | – | – | – | – | no significant effect | inhibitory | 6-7% | disrupted | no deleterious effect
